From patent US9902759B2, “BH3 peptides and methods of use thereof” (Dana-Farber Cancer Institute, Inc., priority 2002, dated 2018)
Ends that are not written are not given here.

Columns and labels:
[1] = system: B-cell lymphoblastic leukemia; assay: Doxycycline treatment of tet-BCL-2/MMTV-tTA/Eμ-myc leukemic mice; format: in vivo, mouse; settings: doxycycline 500 μg/ml in drinking water, from 4-5 weeks of age
From the text: Using standard recombinant DNA technology, the tet-BCL-2 allele was targeted to the DNA methyltransferase 1 locus (FIG. 10). By crossing the new mouse line with the MMTV-tTA line (Jackson Labs) mice were generated which conditionally overexpress BCL-2 in epithelial cells and in B-lineage lymphocytes. Administration of doxycycline successfully suppresses BCL-2 overexpression in these animals. When these mice are crossed with mice expressing myc in the B-lymphocyte lineage (Eμ-myc mice, Jackson Labs) mice which uniformly have B-cell lymphoblastic leukemia were obtained.
To examine the effect of removing BCL-2 expression form the leukemia cells, the effects of doxycycline treatment in a cohort of 28 mice were examined. By genotype, each of the 28 mice contained the tet-BCL-2, the MMTV-tTA, and the Eμ-myc alleles. […] At 4-5 weeks of age, half were treated with doxycycline (500 μg/ml) in drinking water, and half were left untreated. The WBC was measured by hemocytometer using 2 μl blood from tail which was lysed with 0.3% saponin and stained with Hoechst 33258.

MCL-1 = MCL-1 (Homo sapiens, UniProt Q07820); assay: MCL-1 binding
MCL-1, sequence (Q07820 whole entry, species assumed): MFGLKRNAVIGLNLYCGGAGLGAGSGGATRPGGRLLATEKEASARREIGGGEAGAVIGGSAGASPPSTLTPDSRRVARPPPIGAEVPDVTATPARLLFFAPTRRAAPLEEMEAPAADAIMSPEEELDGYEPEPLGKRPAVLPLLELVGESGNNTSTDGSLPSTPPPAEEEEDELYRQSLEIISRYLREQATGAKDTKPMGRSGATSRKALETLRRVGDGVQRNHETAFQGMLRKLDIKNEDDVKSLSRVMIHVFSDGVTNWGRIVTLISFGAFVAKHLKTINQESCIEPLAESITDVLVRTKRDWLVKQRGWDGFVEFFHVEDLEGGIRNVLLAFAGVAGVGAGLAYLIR

GST-BCL-2 [2] = target: T1, GST-BCL-2 (Homo sapiens, UniProt P10415); assay: Fluorescence polarization binding of fluoresceinated BH3 peptides to GST-BCL-2; settings: Kd (nM), BCL-2 Binding, 25 nM fluoresceinated peptide, GST-BCL-2 titration, 37° C.
T1 construct: a GST-BCL-2 fusion protein lacking the C-terminal transmembrane domain was utilized; made in house; host or cells: E. coli BL21 DE3
T1 sequence (P10415 1-218 limits assumed): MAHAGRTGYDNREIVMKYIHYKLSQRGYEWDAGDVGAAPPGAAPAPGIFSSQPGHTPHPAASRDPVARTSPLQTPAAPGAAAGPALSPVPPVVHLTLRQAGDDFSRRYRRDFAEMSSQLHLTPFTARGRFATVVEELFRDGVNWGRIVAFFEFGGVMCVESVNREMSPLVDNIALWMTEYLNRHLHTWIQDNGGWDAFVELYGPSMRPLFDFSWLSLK
From the text: (§1) To determine Kd for peptide binding to BCL-2, a GST-BCL-2 fusion protein lacking the C-terminal transmembrane domain was utilized. Peptides were synthesized with a fluorescein amino-terminus using an AHA linker. […] An increase in fluorescence polarization measured on a Perkin-Elmer LS 50B luminescence spectrophotometer was quantitated to calculate binding. A non-linear fit to a sigmoidal dose-response curve utilized the program Origin 6.0 to determine Kd. […] Data were fitted to a sigmoidal curve as above, and IC50 determined.
(§2) GST-BCL-2δC21 fusion proteins were induced in BL21 DE3 by 0.1 mM IPTG. The bacterial pellets were resuspended in lysis buffer (1 mg/ml lysozyme/1% Triton X-100/0.1 mg/ml PMSF/2 μg/ml aprotinin/2 μg/ml leupeptine/1 μg/ml pepstatin A in PBS) and sonicated. After centrifugation at 20,000×g for 20 min, the supernatant was applied to glutathione-agarose beads (Sigma). The beads were washed with PBS and treated with 50 mM glutathione/50 mM TrisHCl, pH8.0 to elute protein. Eluate was dialyzed against binding buffer and concentrated using Amicon centrifugal concentrating devices.

GST-BCL-2 [3] = target: T1, GST-BCL-2; assay: BH3 peptide displacement from GST-BCL-2 by fluorescence polarization; format: binding
From the text: as §1, §2

Compound | decrease in WBC [1] | Kd (MCL-1) | Kd (GST-BCL-2 [2]) | IC50 (GST-BCL-2 [3])
C[C@H]1c2cccc(O)c2C(=O)C2=C(O)[C@]3(O)C(=O)C(C(N)=O)=C(O)[C@@H](N(C)C)[C@@H]3[C@@H](O)[C@@H]21 [doxycycline] | 1-2 log | – | – | –
EDIIRNIARHAAQVGASMDR [BIDBH3 mut] | – | > 2600 nM | > 1000 nM | > 30000 nM
